Paper PMC4861903, “Synthesis of a highly water-soluble acacetin prodrug for treating experimental atrial fibrillation in beagle dogs” (Scientific Reports, 2016)

System: experimental AF induced by vagal nerve stimulation and burst atrial pacing
Assay: Vagal nerve stimulation-induced AF in beagle dogs
Assay type: in vivo
Conditions: for AF duration in animals with effective AF termination: vehicle 30 min
Experimental: The anti-AF effect of acacetin prodrug was investigated in AF model (with AF duration of 30 min), which was established in beagle dogs with modified procedure as described previously. After three-repeats of stable AF (30 min), drug treatment was applied on 4th repeat (Fig. 5A). Acacetin prodrug dissolved in 5% glucose was administrated intravenously after 1 min of onset of AF induction. A bolus of one third dosage was infused within 2 min, then two third of the dosage (3, 6, and 12 mg/kg) was continuously infused for 18 min. The AF disappeared within 30 min before stopping bilateral vagal nerve stimulation was considered to be effective termination of AF (Fig. 5B). Blood samples were collected at different time points (5, 10, 20, 30, 45 and 60 min) during the experiment to determine the plasma acacetin concentrations. Figure 5C illustrates the termination rate of AF by different doses of acacetin prodrug. […] In addition, AF induction was repeated at 40 min after discontinuous prodrug infusion. AF was terminated at 25.3 ±1.8 min after re-induction (P < 0.01 vs. vehicle) in these animals (n = 15) with drug treatment, but not in animals treated with 5% glucose vehicle (30 min duration). However, the duration of AF was longer than during the initial drug administration (25.3 ± 1.8 min vs.17.1 ± 1.3 min, P < 0.01).
Experimental AF was induced by vagal nerve stimulation in beagle dogs with modified procedure as described previously. Briefly, AF was generated by a 10-s burst atrial pacing with a 4-fold diastolic threshold potential (60-ms interval) after 30 s vagal nerve stimulation. If AF persisted for 30 min, it was terminated by stopping vagal nerve stimulation. The stable AF lasting for 30 min was repeated for three times (20 min interval), drug test (vehicle or different doses of acacetin prodrug) was then performed. A shortened duration of AF during the continuous vagal nerve stimulation was considered to be effective termination of AF for drug treatment. […]
China) were anesthetized with pentobarbital (40 mg/kg, i.v.), supplemented as necessary during the experiment. The animal was kept on an operation table maintained at 37°C, intubated and ventilated with room air. The left femoral vein was cannulated to maintain fluid balance, anesthesia, and test articles. Lead II electrocardiogram (ECG) was continuously monitored with using a digital recording system (RM6240, Chengdu Instruments, China)
An action potential (MAP) recording- and pacing-catheter (Boston Scientific Ltd) was introduced to the right atrium through right jugular vein, and an electrical pacing catheter was introduced to left ventricle via […] for ventricular pacing (when necessary).
Bilateral cervical vagal nerves were isolated and bipolar electrodes were placed to stimulate efferent vagal nerves with 15 Hz, 0.2 ms duration voltage step (80-100% threshold) to induce a 50% reduction of heart rate. Ventricular pacing was performed with 2-ms voltage pulses (2.5 Hz, 150% diastolic threshold) when vagal nerves were continuously stimulated. Experimental atrial fibrillation (AF) model is established in beagle dogs with modified procedure as described previously.8-10 Briefly, AF was generated by a 10-s burst atrial pacing with a 4-fold diastolic threshold potential (60 ms interval) after 30 s vagal nerves stimulation. If AF persisted for 30 min, AF was terminated by stopping vagal nerve stimulation. After stable persistent AF lasing for 30 min was repeated for three times (20 min interval), drug test (vehicle or different doses of phosphate sodium salt prodrug of acacetin) was performed. A shortened AF duration during the continuous vagal stimulation was considered to be effective termination of AF. All the biological signals were recorded using the digital recording system (RM6240, Chengdu […]
Instruments, China). […]
Sixty ICR mice (male, 30; female, 30) were stratified […]

SMILES: COc1ccc(-c2cc(=O)c3c(O)cc(OP(=O)([O-])[O-])cc3o2)cc1.[Na+].[Na+] [acacetin prodrug, phosphate sodium salt of acacetin]
- termination rate of AF (3 mg/kg i.v. (1/3 bolus in 2 min, 2/3 infused 18 min), 3 of 6 dogs, vehicle 0%): 50%
- termination rate of AF (6 mg/kg i.v. (1/3 bolus in 2 min, 2/3 infused 18 min), 6 of 8 dogs, P < 0.05 vs. vehicle): 75%
- AF duration in animals with effective AF termination (6 mg/kg i.v.): 17.2 ± 2.3 min
- termination rate of AF (12 mg/kg i.v. (1/3 bolus in 2 min, 2/3 infused 18 min), 5 of 7 dogs, P < 0.05 vs. vehicle): 71.4%
- AF duration in animals with effective AF termination (12 mg/kg i.v.): 15.5 ± 2.7 min
- AF terminated at, after re-induction (AF induction repeated at 40 min after discontinuous prodrug infusion, all doses pooled, n = 15, P < 0.01 vs. vehicle (30 min)): 25.3 ± 1.8 min
- duration of AF during the initial drug administration (all doses pooled, animals with drug treatment): 17.1 ± 1.3 min
